Consider 1 substance from US7250304B2, “Functional assay of high-density lipoprotein” (The Regents of the University of California, priority 2000, dated 2007).

Assay [1] concerns C57BL/6 mice. Description: Injection into mice, LDL isolated and tested on human artery wall cocultures.
Assay [2] deals with human artery wall cell cocultures. Description: LDL oxidation by human artery wall cell cocultures (lipid hydroperoxides). It is filed as cell-based. Here is the method: The wells of the microtiter plates were treated with 0.1% gelatin at 37° C. overnight. HASMC were added at a confluent density of 1×10^5 cells/cm^2. Cells were cultured for 2 d at which time they had covered the entire surface of the well and had produced a substantial amount of extracellular matrix. HAEC were subsequently added at 2×10^5 cells/cm^2 and were allowed to grow forming a complete monolayer of confluent HAEC in 2 d. In all experiments, HAEC and autologous HASMC (from the same donor) were used at passage levels of four to six.
In general, the cocultures were treated with native LDL (250 μg/ml) in the absence or presence of HDL for 8 h. The supernatants were collected and used for determination of lipid hydroperoxide levels. The cocultures were subsequently washed and fresh culture medium 199 (M199) without any additions was added and incubated for an additional 8 hrs. This allowed the collection of monocyte chemotactic activity released by the cells as a result of stimulation by the oxidized LDL. At the end of incubation, the supernatants were collected from cocultures, diluted 40-fold, and assayed for monocyte chemotactic activity. Briefly, the supernatant was added to a standard Neuroprobe chamber (NeuroProbe, Cabin John, Md.), with monocytes added to the top. The chamber was incubated for 60 min at 37° C. After the incubation, the chamber was disassembled and the nonmigrated monocytes were wiped off. The membrane was then air dried and fixed with 1% glutaraldehyde and stained with 0.1% Crystal Violet dye. The number of migrated monocytes was determined microscopically and expressed as the mean±SD of 12 standardized high power fields counted in quadruple wells.
Statistical significance was determined by model 1 ANOVA. […] Significance is defined as p<0.05.
Human artery wall cocultures were preincubated with ETYA at a concentration of 10^−8 mol/L or with cinnamyl-3,4-dihydroxy-α-cyanocynamate (CDC, from Biomol) at a concentration of 10^−8 mol/L in M199 containing 10% LPDS for 30 min. The cocultures were then washed and LDL was added at 250 μg/ml and incubated for 8 hrs.

The test system of assay [3] is LDL. Description: Removal of 13-HPODE and 15-HPETE from LDL (RP-HPLC, mass spectrometry). Further details: species or system human. Particulars: LDL 1 mg/ml with apo A-I 100 μg/ml, 2 hrs. The method, then: FIG. 6, panels A through H, illustrate the removal of 13-HPODE and 15-HPETE by apo A-I from LDL. Freshly isolated LDL (1 mg/ml) was incubated alone (LDL sham), or with apo A-I (100 μg/ml) in M199 for 2 hrs, with gentle mixing. For controls, 100 μg/ml apo A-I was incubated alone in M 199 for 2 hrs (A-I Sham, Panel A and Panel E) or 1 mg/ml freshly isolated LDL was incubated alone in M 199 for 2 hrs (LDL Sham, Panel B and Panel F) with gentle mixing at 37° C. The LDL and apo A-I were then re-isolated by centrifugation using Millipore molecular weight cut-off filters (100 kDa). Lipids were extracted from apo A-I and from LDL and were analyzed by reverse phase HPLC.
High performance reverse phase liquid chromatography (RP-HPLC) was conducted according to the methods of Ames and colleagues (Yamamoto and Ames (1987) Free Rad. Biol. Med. 3: 359-361), Kambayashi and colleagues (Kambayashi et al. (1997) J. Biochem. 121: 425-431), and Alex Sevanian (personal communication). In brief, the analyses were performed by injecting isolated lipids resuspended in mobile solvent onto the column and eluting with a flow rate of 1.0 ml/min. Detection of fatty acid oxidation products was performed by UV absorbance with a diode array detector (Beckman Instruments) scanning from 200 to 350 nm or with an evaporative light scattering detector (SEDEX 55, France). […]

The subject of assay [4] is fibroblasts over expressing 15-LO. The experiment in a line: Removal of 13(S)-HPODE by apo A-I from fibroblasts over expressing 15-LO. Particulars: apo A-I 100 μg/ml, 3 hrs. Format: cell-based. Here is the method:
Fibroblasts that were transfected with vector alone or cells that over expressed 15-LO were a generous gift of Drs. Joe Witztum and Peter Reaven. In the present experiments, the fibroblasts were incubated with or without 100 μg/ml apo A-I. Following 3 hrs of incubation at 37° C. with gentle mixing, the culture supernatants were removed, apo A-I was separated by FPLC and the level of hydroperoxides determined in lipid extracts of the culture supernatants and in lipid extracts of apo A-I.

A value given as a limit tells only on which side of the number the result lay.

As for “apo A-I: Human apo A-I from Sigma, major apolipoprotein of HDL; infused into humans as apo A-I/phosphatidylcholine discs”, in assay [1], the “time after injection at which LDL was rendered resistant to oxidation” value was at most 3 h. Besides, the “persistence of LDL resistance to oxidation” value in assay [1] (100 μg injected) was “up to 24 hours”. For the same substance, in assay [2] (LDL from C57BL/6 and C3H/HeJ mice on chow, incubated in vitro with human apo A-I 100 μg/ml), the “oxidation by artery wall cells of mouse LDL after apo A-I treatment” value is “rendered resistant to oxidation”. For the same substance, in assay [2] (apo A-I 50 μg/ml co-incubated with cocultures and LDL 250 μg/ml), the “protection of LDL against oxidation on co-incubation” value is reported as “did not protect the LDL against oxidation”. In addition, the “ability of pretreated artery wall cocultures to oxidize LDL” value in assay [2] (cocultures incubated 8 hrs with agent, agent removed before LDL 250 μg/ml) is given as “not able to oxidize the LDL”. Also, in assay [2] (human LDL incubated with agent, re-isolated, then cocultures 8 hrs), the “oxidation by artery wall cells of LDL pre-incubated with the agent” value is “rendered the LDL resistant to oxidation”. Besides, in assay [3], the “removal of HPODE and HPETE from freshly isolated LDL” value is listed as “effectively removed”. In assay [4], the “13-HPODE equivalents in lipid extracts of apo A-I, cells over expressing LO vs control cells” value was found to be 5.1 fold.
